Read-outs that look alike come from different tables or passages of the source.
Tests used:
[1] = tested on: duplex-form calf thymus DNA (CT-DNA); assay: Thermal denaturation studies with calf thymus DNA (DNA binding affinity); details: [PBD]:[DNA] 1:5, CT-DNA 100 μM, ligand 20 μM, pH 7.00
Method: Compounds have been subjected to thermal denaturation studies with duplex-form calf thymus DNA (CT-DNA) using an modification of a reported procedure (Newman, M. S. Carcinog-compr. Surv. 1976,1, 203; (b) Hecht, S. S.; Loy, M.; Hoffman, Carcinog-compr. Surv. 1976, 1, 325). Working solutions in aqueous buffer (10 mM NaH2PO4/Na2HPO4, 1 mM Na2EDTA, pH 7.00+0.01) containing CT-DNA (100 μm in phosphate) and the PBD (20 μm) have been prepared by addition of concentrated PBD solutions in DMSO to obtain a fixed [PBD]/[DNA] molar ratio of 1:5. The DNA-PBD solutions have been incubated at 37° C. for 0 and 18 h prior to analysis. Samples have been monitored at 260 using a Beckman DU-800 spectrophotometer fitted with high performance temperature controller, and heated at 1° C. min^−1 in the 40-110° C. range. DNA helix→coil transition temperatures (Tm) have been obtained from the maxima in the d(A260)/dT derivative plots. Drug-induced alterations in DNA melting behavior are given by: ΔTm=Tm(DNA+PBD)−Tm(DNA alone), where the Tm value for the PBD-free CT-DNA is 69.1±0.01.
The DNA binding activity for these novel C8-linked benzothiazole, benzoxazole-PBD hybrids has been examined by thermal denaturation studies using calf thymus (CT) DNA. […] The data for the compounds 9a-n is included in Table 7 for comparison.

[2] = tested on: A 2780 (ovary cancer) cell line; assay: cells; format: cell-based; details: for GI50: mean of three determinations
Method: (§1) Anticancer activity: In vitro biological activity studies were carried out at the Advance Center for Treatment Research & Education in Cancer (ACTREC), Navi Mumbai.
(§2) The compounds were evaluated for in vitro anticancer activity against eight tumour cells lines derived from seven cancer types (non-small-cell lung, colon, oral, cervix, ovarian, prostate, and breast cancer) as shown in Table 2. For each compound, dose response curves for each cell line were measured at a minimum of five concentrations at 10 fold dilutions. A protocol of 48 h continuous drug exposure was used and a sulforhodamine B (SRB) protein assay was used to estimate cell viability or growth. The concentration causing 50% cell growth inhibition (GI50) and 50% cell death (LC50, −50% growth) compared with the control was calculated. Compounds 9a-9l have been evaluated for their in vitro cytotoxicity in eight cell lines from seven human cancer types of lung (Hop-62, A-549) colon (COLO-205) cervix (Si—Ha), ovary (A-2780), prostate (PC3) breast (MCF7), oral (KB). The results are expressed as percent of cell growth determined relative to that of untreated control cells (Table-8 and table-9).

[3] = tested on: A 549 (lung cancer) cell line; assay: cells; format: cell-based; details: for GI50: mean of three determinations
Method: as §1, §2

[4] = tested on: Colo 205 (colon cancer) cell line; assay: cells; format: cell-based; details: for GI50: mean of three determinations
Method: as §1, §2

[5] = tested on: HOP 62 (lung cancer) cell line; assay: cells; format: cell-based; details: for GI50: mean of three determinations
Method: as §1, §2

[6] = tested on: MCF 7 (breast cancer) cell line; assay: cells; format: cell-based; details: for GI50: read-out: GI50 MCF 7
Method: as §1, §2

[7] = tested on: PC 3 (prostate cancer) cell line; assay: cells; format: cell-based; details: 48 h; for GI50: read-out: GI50 PC 3
Method: as §1, §2

[8] = tested on: SiHa (cervix cancer) cell line; assay: cells; format: cell-based; details: for GI50: mean of three determinations
Method: as §1, §2

[9] = tested on: KB (oral cancer) cell line; assay: In vitro anticancer activity, SRB assay, KB; format: cell-based, human; details: for GI50: mean of three determinations
Method: as §1, §2

[10] = tested on: eight tumour cells lines derived from seven cancer types; assay: In vitro anticancer activity, SRB assay, panel of eight cell lines; format: cell-based; details: Homo sapiens, range over the eight cell lines per compound; read-out: GI50 range against cancer cell lines
Method: as §1, §2

[11] = tested on: duplex-form calf thymus DNA (CT-DNA); details: comparative data, hybrids without piperazine, cited from earlier work
[12] = Homo sapiens, A2780, 48 h, read-out: GI50 A 2780, 48 h drug exposure, SRB
[13] = Homo sapiens, SiHa, 48 h, read-out: GI50 SiHa, 48 h drug exposure, SRB
[14] = 48 h drug exposure, SRB, read-out: GI50 KB

COc1cc(-c2nc3ccccc3s2)ccc1OCCCN1CCN(CCCOc2cc3c(cc2OC)C(=O)N2CCC[C@H]2C=N3)CC1 [Compound 9b]
ΔTm after incubation at 37° C. for 0 h [1]: 12.1 °C | ΔTm after incubation at 37° C. for 18 h [1]: 12.7 °C | GI50 [2, 12]: < 10 nM | CC50 ([2]; Homo sapiens, A2780, 48 h, read-out: LC50 A 2780, 50% cell death, 48 h drug exposure, SRB): 120 nM | GI50 ([3]; Homo sapiens, A549, 48 h, read-out: GI50 A 549, 48 h drug exposure, SRB): 120 nM | CC50 ([3]; Homo sapiens, A549, 48 h, read-out: LC50 A 549, 50% cell death, 48 h drug exposure, SRB): > 100000 nM | GI50 ([4]; Homo sapiens, COLO 205, 48 h, read-out: GI50 Colo 205, 48 h drug exposure, SRB): 90 nM | CC50 ([4]; Homo sapiens, COLO 205, 48 h, read-out: LC50 Colo 205): > 100000 nM | GI50 ([5]; Homo sapiens, HOP-62, 48 h, read-out: GI50 HOP 62, 48 h drug exposure, SRB): < 10 nM | LC50 ([5]; Homo sapiens, HOP-62, 48 h, read-out: LC50 HOP 62, 50% cell death, 48 h drug exposure, SRB): 28000 nM | GI50 ([6]; Homo sapiens, MCF7, 48 h): < 10 nM | LC50 (concentration causing 50% cell death) ([6]; Homo sapiens, MCF7, 48 h, read-out: LC50 MCF 7, 50% cell death, 48 h drug exposure, SRB): < 10 nM | GI50 ([7]; Homo sapiens): < 10 nM | CC50 ([7]; Homo sapiens, read-out: LC50 Pc 3, 50% cell death, 48 h drug exposure, SRB): 2400 nM | GI50 [8, 13]: < 10 nM | LC50 (concentration causing 50% cell death) ([8]; Homo sapiens, SiHa, 48 h, read-out: LC50 SiHa, 50% cell death, 48 h drug exposure, SRB): 2400 nM | GI50 ([9]; Homo sapiens, 48 h, read-out: GI50 KB, 48 h drug exposure, SRB): < 10 nM | CC50 ([9]; Homo sapiens, 48 h, read-out: LC50 KB, 50% cell death, 48 h drug exposure, SRB): 2200 nM | GI50 [10]: ≤ 120 nM

COc1cc2c(cc1OCCCCN1CCN(CCCCOc3ccc(-c4nc5ccccc5s4)cc3)CC1)N=C[C@@H]1CCCN1C2=O [Compound 9e, 7-Methoxy-8-[4-(4-{4-[4(1,3-benzothiazol-2-yl)-phenoxy]butyl}piperazin-1-yl)butyl]oxy-(11aS)-1,2,3,11a-tetrahydro-5H-pyrrolo[2,1-c][1,4]benzodiazepin-5-one]
ΔTm after incubation at 37° C. for 0 h [1]: 12.2 °C | ΔTm after incubation at 37° C. for 18 h [1]: 12.6 °C | GI50 [2, 12]: 97 nM | CC50 ([2]; human, 48 h): 2200 nM | CC50 ([3]; human, 48 h): > 100000 nM | GI50 ([3]; read-out: GI50 A 549, 48 h drug exposure, SRB): 105 nM | CC50 ([4]; human, 48 h): > 100000 nM | GI50 ([4]; read-out: GI50 Colo 205, 48 h drug exposure, SRB): 120 nM | CC50 ([5]; human, 48 h): 27000 nM | GI50 ([5]; read-out: GI50 HOP 62, 48 h drug exposure, SRB): < 10 nM | GI50 ([6]; Homo sapiens, MCF7, 48 h): < 10 nM | CC50 ([6]; human, 48 h): 150 nM | GI50 ([7]; Homo sapiens): < 10 nM | CC50 ([7]; human): 2500 nM | GI50 [8, 13]: 107 nM | CC50 ([8]; human, 48 h): 27800 nM | LC50 KB ([9]; 50% cell death, 48 h drug exposure, SRB): 2300 nM | GI50 [9, 14]: <10 nM

COc1cc2c(cc1O)N=CC1CCCN1C2=O (centres unmarked) [DC-81, reference compound]
ΔTm after incubation at 37° C. for 0 h [1]: 0.3 °C | ΔTm after incubation at 37° C. for 18 h [1]: 0.7 °C | GI50 ([2]; 48 h drug exposure, SRB, read-out: GI50 A 2780): 130 nM | GI50 ([4]; 48 h drug exposure, SRB, read-out: GI50 Colo 205): 100 nM | GI50 ([5]; 48 h drug exposure, SRB, read-out: GI50 HOP 62): 110 nM | GI50 ([6]; 48 h drug exposure, SRB, mean of three determinations): 160 nM | GI50 ([8]; 48 h drug exposure, SRB, read-out: GI50 SiHa): 160 nM | GI50 [9, 14]: 170 nM

COc1cc2c(cc1OCCCCCOc1ccc(-c3nc4ccccc4o3)cc1)N=C[C@@H]1CCCN1C2=O [Compound 30a]
ΔTm after incubation at 37° C. for 0 h (PBD hybrids with out piperizine) ([11]; 0 h): 4.1 °C | ΔTm after incubation at 37° C. for 18 h (PBD hybrids with out piperizine) ([11]; 18 h): 4.3 °C

From patent US8637665B2, “Pyrrolo[2,L-C][L,4]benzodiazepine-benzothiazole or benzoxazole conjugates linked through piperazine moiety and process for the preparation thereof” (priority 2010, dated 2014)
